Results on four compounds are retold here after a compilation of properties of binary mixtures (doi:10.1007/s10953-018-0732-1).

This data set is described as follows: xn = mol fraction of the nth substance listed. The conditions noted are these: 101.3 kPa.

A word on the viscosity: it is the resistance of a fluid to flow. A lower viscosity goes with a thin fluid.

Turning to `CCCC[P+](CCCC)(CCCC)CCCC.CS(=O)(=O)[O-]` + c1c[nH]cn1, the viscosity is, setting by setting: (303.05 K, x1 = 0.5) 176 mPa·s; (323.05 K, x1 = 0.5) 61 mPa·s; (333.05 K, x1 = 0.5) 40.2 mPa·s; (343.05 K, x1 = 0.5) 29.5 mPa·s.
In the case of `c1c[nH]cn1` + CC(C)C[P+](C)(CC(C)C)CC(C)C.Cc1ccc(S(=O)(=O)[O-])cc1, the viscosity was 357 mPa·s (303.09 K, x2 = 0.5); 100 mPa·s (323.07 K, x2 = 0.5); 63 mPa·s (333.11 K, x2 = 0.5); 43.3 mPa·s (343.1 K, x2 = 0.5); 32.8 mPa·s (353.08 K, x2 = 0.5).
Consider `c1c[nH]cn1` + CCCCCC[N+]1(C)CCCC1.O=S(=O)([N-]S(=O)(=O)C(F)(F)F)C(F)(F)F, for which the viscosity by setting is: (323.15 K, x2 = 0.5) 23.8 mPa·s; (333.15 K, x2 = 0.5) 16 mPa·s.
Consider `c1c[nH]cn1` + CCCC[N+]1(C)CCCC1.O=S(=O)([N-]S(=O)(=O)C(F)(F)F)C(F)(F)F, for which the viscosity runs as follows: (323.15 K, x2 = 0.5) 18.6 mPa·s; (333.15 K, x2 = 0.5) 13.5 mPa·s; (343.15 K, x2 = 0.5) 9.7 mPa·s; (353.15 K, x2 = 0.5) 7.9 mPa·s.
